Where “and” joins values, the source holds several entries; their conditions need not be identical. Equal entries are not always repeated.
Experiments:
[1] = molecular target: T1, human GASC1 (GST-GASC1(1-420)) (Homo sapiens, UniProt Q9H3R0); test: GASC1 enzyme activity assay (DELFIA); format: biochemical; conditions: DELFIA, H3K9me3 peptide substrate
T1 construct: corresponding to amino acid 1-420 was cloned and purified; made in house; host or cells: Escherichia coli BL-21
T1 sequence (Q9H3R0 1-420): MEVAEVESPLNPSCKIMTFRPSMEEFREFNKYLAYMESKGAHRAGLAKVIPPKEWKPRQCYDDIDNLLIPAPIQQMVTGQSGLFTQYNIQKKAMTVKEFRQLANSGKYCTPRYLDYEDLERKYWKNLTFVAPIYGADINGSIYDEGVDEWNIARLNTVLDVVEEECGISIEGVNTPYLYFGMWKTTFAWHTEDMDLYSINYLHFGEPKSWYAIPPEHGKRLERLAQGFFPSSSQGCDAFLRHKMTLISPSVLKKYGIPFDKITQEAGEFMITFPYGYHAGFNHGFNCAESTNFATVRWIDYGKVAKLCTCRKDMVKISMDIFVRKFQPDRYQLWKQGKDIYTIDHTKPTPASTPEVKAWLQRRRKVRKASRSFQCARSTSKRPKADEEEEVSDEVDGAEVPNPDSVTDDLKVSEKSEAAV
Procedure: (§1) In order to evaluate the inhibitory activity of 1 in vitro, a GST-fusion protein of the catalytic N-terminus of human GASC1 (gene amplified in squamous cell carcinoma 1) corresponding to amino acid 1-420 was cloned and purified. […] To evaluate the enzyme specificity of 1, the activity of 1 was examined against several other related enzymes in vitro.
(§2) The enzyme activity assays for GASC1 and JMJD2A were established on the DELFIA platform. DELFIA assays were performed in white, opaque 384-well plates coated with Streptavidin (Perkin Elmer). GST-GASC1(1-420) was diluted to 200 ng/well in 20 mM Tris HCl pH 8.5/2 mM glutathione and added in a volume of 20 μL. Blank wells received Tris/glutathione buffer only. Test compounds were diluted in DMSO and […] was pinned into the wells. Blank and control wells received only compound buffer. The reactions were initiated by the addition of 500 nM biotin-H3(1-20)K9me3 substrate, 10 μM FeSO4, 100 μM alpha-ketoglutarate in a volume of 20 μL, and incubated at room temperature for 60 minutes. The plates were washed 3 times with 100 μL of Wash Buffer (50 mM Tris pH 7.4, 150 mM NaCl, 0.05% Tween 20, 0.2% BSA). […] Time resolved fluorescence was measured after 45 minutes on an Envision Microplate Imager (Perkin Elmer Life Sciences) with 400 μs delay, excitation at 360 nm, and emission at 620 nm.

JMJD2A = molecular target: T2, JMJD2A (Homo sapiens, UniProt O75164); test: JMJD2A enzyme activity assay (DELFIA); format: biochemical; conditions: DELFIA
T2 construct: Recombinant protein preparation of GASC1(1-420), JMJD2A (1-420) and LSD1 (full-length); made in house; host or cells: Escherichia coli BL-21
T2 sequence (O75164 1-420): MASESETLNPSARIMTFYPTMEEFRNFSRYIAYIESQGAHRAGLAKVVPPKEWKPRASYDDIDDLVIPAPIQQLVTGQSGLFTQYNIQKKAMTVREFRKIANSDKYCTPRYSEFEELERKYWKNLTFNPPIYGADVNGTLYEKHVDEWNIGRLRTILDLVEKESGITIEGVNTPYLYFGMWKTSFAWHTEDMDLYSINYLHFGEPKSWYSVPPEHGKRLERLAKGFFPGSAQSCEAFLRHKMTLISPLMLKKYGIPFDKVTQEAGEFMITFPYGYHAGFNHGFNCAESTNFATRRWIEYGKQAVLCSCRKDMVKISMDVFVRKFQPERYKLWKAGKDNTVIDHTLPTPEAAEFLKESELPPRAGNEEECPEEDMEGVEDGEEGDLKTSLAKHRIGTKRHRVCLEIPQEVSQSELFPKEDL
Procedure: as §1, §2

LSD1 = molecular target: T3, LSD1 (Homo sapiens, UniProt O60341); test: LSD1 formaldehyde dehydrogenase coupled assay; format: biochemical; conditions: in vitro
T3 construct: LSD1 (full-length) was expressed as glutathione S-transferase (GST) fusions; made in house; host or cells: Escherichia coli BL-21
Procedure: LSD1 activity was measured in a formaldehyde dehydrogenase coupled assay. 15 μL enzyme mix containing 2.4 μg GST-LSD1 in 20 mM TRIS pH 8.5, 1 mM NAD, 1.5 mU formaldehyde dehydrogenase, 0.5 mM glutathione was added, followed by pin transfer of 100 nL compound. Then reactions were started by addition of 15 μL 75 μM H3(1-20)K4me2 peptide, and NADH fluorescence was measured on a Envision Microplate Imager (Perkin Elmer Life Sciences) with excitation at 345 nm and emission at 460 nm, integration for 400 ms at 10 min and 80 min after peptide addition.

HDACs = test: Histone deacetylases (HDACs) enzyme inhibition assay (Fluor de Lys); format: biochemical; conditions: in vitro
Procedure: The enzyme activity assay for HDAC was carried out using Fluor de Lys Fluorescent Assay System (BML-AK500, Enzo Life Sciences Inc, NY USA). The assay was performed as the manufactory guide in white 384-well plates. Time resolved fluorescence was measured on a Beckman Coulter DTX 880 plate reader with 250 ms delay, excitation at 360 nm, and emission at 530 nm.

KYSE150 cells = test: Cell viability / growth inhibition assay (CellTiter-Glo); format: cell-based, human; conditions: 48 hours; compound 1 at up to 100 μM
From the text: To examine the cellular activity of the compounds of the invention, oesophageal carcinoma cell line KYSE150 was used in a growth inhibition assay because KYSE150 cells have been reported to contain several copies of the GASC1 gene, and it has been reported that inhibition of GASC1 expression using short hairpin RNA causes a significant reduction of proliferation in KYSE150 cells. […] Without being bound by any theory, it is believed that this low activity in cells was possibly due to the poor cellular uptake of the zwitterion form in which it typically exists under physiological conditions. Therefore, its methyl ester prodrug 2 (FIG. 1a), called methylstat was tested.
To screen and validate the cellular toxicity of compounds, a cell viability assay was carried out using CellTiter-Glo luminescent cell viability assay kit (Promega, Madison USA). KYSE150 cells were seeded on blank-walled 384-well plates with KYSE medium at densities of 1,000 cells/well. The medium volume for each well was 40 μL. Cells were incubated at 37° C. in 5% CO2/95% air for 24 hours. The medium was removed from each well and replaced with 38 μL, of warmed fresh medium and 2 μL, compound solution in 2% DMSO/98% H2O. The compounds were added into medium at different concentrations with the final concentration of DMSO as 0.1%. After incubation at 37° C. with 5% CO2/95% air for another 48 hours, the plates were equilibrated to room temperature for 30 minutes. 40 μL, of CellTiter-Glo reagent (Promega, Madison USA) was added to each well and mixed for 2 minutes on an orbital shaker. The plate was incubated at room temperature for another 10 minutes to stabilize luminescent signal. The luminescence of each sample was measured in a plate-reading illuminometer (Beckman Coulter DTX 880) with parameters of 1-minute lag time and 0.1 second/well read time. The experiments were performed in triplicate and repeated on two separately initiated cultures.

GST-fused GASC1(1-420) = molecular target: T4, GST-fused GASC1(1-420) (Homo sapiens, UniProt Q9H3R0); test: GASC1 enzyme inhibition assay with MS detection; format: biochemical; conditions: 1 μM and 5 μM, 2 hours
T4 construct: corresponding to amino acid 1-420 was cloned and purified; made in house; host or cells: Escherichia coli BL-21
T4 sequence (Q9H3R0 1-420): T1 sequence (Q9H3R0 1-420)
Procedure: Synthetic histone peptides H3K9me3 were incubated with purified GST-tagged GASC1(1-420) in demethylation buffer (50 mM Tris pH 8.0, 2 mM ZnCl2, 1 mM alpha-ketoglutarate, 50 μM FeSO4, 1 mM ascorbic acid) at 37° C. In a typical reaction, 2 μg of modified histone peptides were incubated with 20 μg GST-GASC1(1-420) in a total volume of 40 μL, for 2 hours. Reaction mixtures were concentrated and re-dissolved in 50% methanol in water with 0.1% formic acid followed by ESI-TOF analysis using ABI Q-Star Pulsar.

IC50 [1]: ~4.3 µM and 4.3 µM | IC50 (JMJD2A): ~3.4 µM and 3.4 µM | inhibition of FAD-dependent HDM LSD1 (LSD1): did not significantly inhibit | inhibition of histone deacetylases (HDACs) (HDACs): did not significantly inhibit
Compound: O=C(O)/C=C/C(=O)N(O)CCCCNCc1ccc(COC(=O)Nc2cccc3ccccc23)cc1 [Compound 1]
KYSE150 cell growth inhibition (KYSE150 cells): did not show significant growth inhibition | inhibition of GASC1-mediated demethylation of H3K9me3 peptide (mass spectrum) (GST-fused GASC1(1-420)): inhibited GASC1-mediated demethylation of H3K9me3 peptides

From US8735622B2, “Histone demethylase inhibitors and methods for using the same” (The Regents of the University of Colorado, a body corporate, priority 2011, dated 2014)
